Laboratory results published in publication PMC10498667 (Chemical Science, 2023).

Tests used:
Aβ42 = target: T1, Aβ42 (Homo sapiens, UniProt P05067); experiment: ITC binding of 6 with Aβ42
T1 construct: purchased Peptide Institute, Inc. (Osaka, Japan)
Description: (§1) Distinct reactivities of 6 with metal-free Aβ and metal–Aβ were supported by various biophysical approaches. […] In the absence of Aβ, an increase or decrease in the absorption of the peaks at ca. 265, 300, 340, and 410 nm was monitored for 24 h (Fig. S18 ^†), which could be resulted from the oxidation of 6 in the presence of O2.[69] These spectral changes were accelerated upon incubation with Aβ, indicative of its impact on the oxidative modification of 6. Such transformation of 6 was also indicated in the presence of Cu(II) or Zn(II) with and without Aβ. To probe the interaction of 6 with Aβ, their binding properties were analyzed by isothermal titration calorimetry (ITC). For the association between 6 and Aβ, we recorded the heat change upon constant titration of the flavonoid into the solution of Aβ, where the dilution heat was also measured to avoid the heat change induced by its addition into the buffered solution. […] Thus, 6 can bind to Aβ with a micromolar binding affinity. […]
(§2) ITC. The solutions of Ab and 6 were subjected to degassing under vacuum for 3 min prior to loading into the instrument. […] […] The initial delay and the reference power were 60 s and 10 µcal/s, respectively. Dilution heat of 6 only was also measured under the same experimental conditions.
(§3) The ITC thermogram and binding isotherm were shown after the subtraction of the dilution heat.
(§4) The binding isotherm after baseline correction was fitted to the one-set-of-sites binding model using the MicroCal Origin software (version 7.0).
Expression and Purification of 15N-labeled Recombinant Ab42. 15N-labeled recombinant Ab42 was expressed in E. coli and purified as previously reported.27 Briefly, the DNA sequence coding the human Ab42 peptide was artificially constructed using codons preferred by E. coli with an extra Met residue at the N-terminal of the peptide. The DNA construct was inserted into pAED4 vector28 and the E. coli BL21 (DE3) pLysS strain (Novagen, Inc., Madison, WI, USA) was utilized in the protein expression. Transformed cells were incubated in LB media containing ampicillin and chloramphenicol until the cultures reach 3.5 McFarland turbidity. Cells were then harvested by centrifugation and the cell pellets were resuspended in M9 minimal media containing isotopically labeled 1 g/L 15N ammonium chloride, and induced by addition of 1 mM IPTG for 4 h. The peptide formed inclusion bodies in the bacterial cells. The purified inclusion bodies were dissolved in 20 mM NaOH and the peptide was further purified by repeated cycles of amyloid growth at low pH

Aβ40 = target: T2, Aβ40 (Homo sapiens, UniProt P05067); experiment: ITC binding of 6 with Aβ40
T2 construct: Ab40 ([…]-; purchased Peptide Institute, Inc. (Osaka, Japan)
T2 sequence (P05067 672-711 limits assumed): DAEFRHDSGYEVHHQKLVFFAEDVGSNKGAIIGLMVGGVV
Description: as §1, §2, §3
The binding isotherm after baseline correction was fitted to the one-set-of-sites binding model using the MicroCal Origin software (version 7.0). […]

15N-labeled Aβ42 = target: T3, 15N-labeled Aβ42 (Homo sapiens, UniProt P05067); experiment: 2D SOFAST-HMQC NMR with 15N-labeled Aβ42; type: binding; settings: 15N-Aβ42 33 μM; 6 100 μM; 10 °C
T3 construct: the human Ab42 peptide was artificially constructed using codons; extra Met residue (start codon) before Asp1 (N); made in house; host or cells: E. coli BL21 (DE3) pLysS, pAED4 vector
T3 sequence (P05067 671-713 limits assumed): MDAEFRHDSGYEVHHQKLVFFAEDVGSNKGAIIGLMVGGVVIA
Description: Cell viability was determined by the MTT assay [MTT = 3-(4,5-dimethylthiazol-2-yl)-2,5-diphenyltetrazolium bromide]. Cells were seeded in a 96-well plate (15,000 cells/100 µL) and treated with the samples {[flavonoid] = 5, 10, 25, 50, and 100 µM (1% v/v DMSO)}. After 24 h incubation, 5Y cells were washed with phosphate buffered saline (PBS; GIBCO). MTT [5 mg/mL in PBS (pH 7.4, GIBCO); 25 µL] was added to each well and the plate was incubated for 4 h at 37 °C. The formazan produced by cells was solubilized using an acidic solution of DMF (pH 4.5, 50% v/v, aq) and sodium dodecyl sulfate (SDS; 20% w/v) overnight at room temperature in the dark. Absorbance was measured at 600 nm by a microplate reader (Molecular Devices). Cell viability, relative to that of the cells containing an equivalent amount of DMSO, was calculated.
The measurements were conducted in triplicate. […]
loading into the instrument. […]
The initial delay and the reference power were 60 s and 10 µcal/s, […]
as §3, §4
Expression and Purification of 15N-labeled Recombinant Ab42. […]

15N-labeled Aβ40 = target: T4, 15N-labeled Aβ40 (Homo sapiens, UniProt P05067); experiment: 2D SOFAST-HMQC NMR with 15N-labeled Aβ40; type: binding; settings: 15N-Aβ40 33 μM; 6 100 μM; 10 °C
T4 construct: AEDVG SNKGA IIGLM VGGVV; purchased rPeptide (Georgia, GA, USA)
T4 sequence (P05067 672-711 limits assumed): as the sequence (P05067 672-711 limits assumed) above
Description: 2D 1H−15N SOFAST-HMQC NMR Experiments. […] To remove possible preformed aggregates, the lyophilized peptide was then redissolved in diluted NaOH (pH 10) and passed through a filter (0.22 µm). On the other hand, the stock solution of 15N-labeled Ab42 based on the previous report.27 Briefly, uniformly 15N-labeled Ab42 was solubilized in diluted NaOH (pH 10) at a concentration of ~200 µM. The undissolved precipitates of Ab42 were removed by centrifugation at 40,000 rpm for 1 h. The solution of 15N-labeled Ab (33 µM) was prepared with and without 6 (100 µM; 1% v/v DMSO) in 20 mM HEPES, pH 7.4 (10% v/v D2O) for NMR experiments. All spectra were acquired with 180 scans at 10 °C. Dimensions of the spectra were 1,024 (1H) ´ 128 (15N) points. Experimental data were processed with NMRpipe29 and Sparky 3.115.30 The 1H and 15N assignments of 15N-labeled Ab were determined based on the previous results.21,31 The chemical shift perturbation was calculated following the equation (eq 4).32 Note that DdH and DdN represent the alterations in the chemical shifts of 1H and 15N of 15N-labeled Ab, respectively.

T1 sequence (P05067 672-713 limits assumed): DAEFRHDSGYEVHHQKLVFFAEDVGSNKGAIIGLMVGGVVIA

**Q.** What does the source list for O=c1c(-c2ccc(O)c(O)c2)coc2cc(O)c(O)c(O)c12 [compound 6, 3-(3,4-dihydroxyphenyl)-5,6,7-trihydroxy-4H-chromen-4-one]?
**A.** Kd (Aβ42; one-site model, 10 °C, read-out: Binding affinity): ~19.5 µM; TΔS (Aβ42; pH 7.4, 10 °C): 5.6 (±0.1) kcal mol^−1; ΔG (Aβ42; pH 7.4, 10 °C): −6.1 (±0.1) kcal mol^−1; ΔH (Aβ42; pH 7.4, 10 °C): −0.5 (±0.1) kcal mol^−1; Kd (Aβ40; one-set-of-sites model, 10 °C, read-out: Binding affinity): ~20.5 µM; TΔS (Aβ40; pH 7.4, 10 °C): 5.4 (±0.7) kcal mol^−1; ΔG (Aβ40; pH 7.4, 10 °C): −6.0 (±0.5) kcal mol^−1; ΔH (Aβ40; pH 7.4, 10 °C): −0.6 (±0.5) kcal mol^−1; decrease of overall NMR peak intensity (15N-labeled Aβ42): ca. 20%; decrease of overall NMR peak intensity (15N-labeled Aβ40): ca. 10%
